Experimental data reported in ChEMBL document CHEMBL5352410, “Discovery of novel selenium-containing azole derivatives as antifungal agents by exploiting the hydrophobic cleft of CYP51” (Eur J Med Chem, 2022).
≈ marks a conversion by molar mass, not a printed value.

Assays:
[1] = molecular target: T1, Lanosterol 14-alpha demethylase (Candida albicans (strain SC5314 / ATCC MYA-2876) (Yeast), UniProt P10613); test: Inhibition of CYP51 of Candida albicans ATCC SC5314 assessed as increase in obtusifoliol level at 8 ug/ml incubated for 16 hrs by GC-MS analysis (reference value: 0 %); set-up: scale not given: the % may be the effect or the level left; settings: at 8 µg/mL
T1 sequence (P10613 whole entry): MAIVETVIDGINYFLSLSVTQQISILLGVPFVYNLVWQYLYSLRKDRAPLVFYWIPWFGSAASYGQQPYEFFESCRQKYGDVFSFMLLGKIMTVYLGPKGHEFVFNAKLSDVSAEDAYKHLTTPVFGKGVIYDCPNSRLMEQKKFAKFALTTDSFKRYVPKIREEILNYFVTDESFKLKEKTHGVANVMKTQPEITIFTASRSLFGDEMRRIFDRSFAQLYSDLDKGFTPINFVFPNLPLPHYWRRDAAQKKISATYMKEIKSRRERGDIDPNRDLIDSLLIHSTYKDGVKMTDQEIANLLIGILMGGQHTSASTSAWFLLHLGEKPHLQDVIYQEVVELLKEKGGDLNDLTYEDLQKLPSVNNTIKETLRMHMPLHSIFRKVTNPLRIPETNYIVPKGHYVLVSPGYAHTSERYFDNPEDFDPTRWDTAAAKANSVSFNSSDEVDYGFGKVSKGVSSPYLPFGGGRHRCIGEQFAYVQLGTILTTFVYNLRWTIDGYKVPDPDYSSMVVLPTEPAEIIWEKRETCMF

[2] = Acute toxicity in water diet-fed Kunming mouse administered intragastrically measured for 7 days; settings: in vivo, po, route ig, time 7 day
Candida albicans [3] = test: Antibiofilm activity against Candida albicans SC5314 assessed as sessile minimum inhibitory concentration measured after 6 hrs by XTT assay; type: functional
[4] = molecular target: T1, Lanosterol 14-alpha demethylase; test: Inhibition of CYP51 of Candida albicans ATCC SC5314 assessed as increase in obtusifoliol level at 2 ug/ml incubated for 16 hrs by GC-MS analysis (reference value: 0 %); set-up: scale not given: the % may be the effect or the level left; settings: at 2 µg/mL
Candida albicans [5] = test: Antifungal activity against FCZ-resistant Candida albicans 17# by CLSI based broth microdilution method; type: functional
[6] = Subacute toxicity in water diet-fed Kunming mouse assessed as lesions in kidney at 100 to 200 mg/kg, IG measured after 8 to 15 days; type: organism-based; settings: in vivo, po, dose lower 100 mg/kg, time lower 8 day, dose upper 200 mg/kg, time upper 15 day
[7] = molecular target: T1, Lanosterol 14-alpha demethylase; test: Inhibition of CYP51 of Candida albicans ATCC SC5314 assessed as increase in eburicol level at 8 ug/ml incubated for 16 hrs by GC-MS analysis (reference value: 0 %); set-up: scale not given: the % may be the effect or the level left; settings: at 8 µg/mL
[8] = Subacute toxicity in water diet-fed Kunming mouse assessed as adverse reactions at 100 to 200 mg/kg, IG measured for 48 hrs; type: organism-based; settings: in vivo, po, dose 100-200 mg/kg
Candida albicans [9] = test: Antibiofilm activity against Candida albicans CPCC400616 assessed as sessile minimum inhibitory concentration measured after 3 hrs by XTT assay; type: functional
[10] = Cytotoxicity against human HL-60 cells by MTT assay; type: toxicity, cell-based
Candida albicans [11] = test: Antibiofilm activity against Candida albicans SC5314 assessed as sessile minimum inhibitory concentration measured after 3 hrs by XTT assay; type: functional
[12] = Acute toxicity in water diet-fed Kunming mouse assessed as change in body weight at 500 mg/kg, IG measured for 7 days; type: organism-based; settings: in vivo, po, 168 h, time 7 day
Candida albicans [13] = test: Antifungal activity against FCZ-resistant Candida albicans 901 by CLSI based broth microdilution method; type: functional

Clc1ccc(C(Cn2ccnc2)[Se][Se]C(Cn2ccnc2)c2ccc(Cl)cc2Cl)c(Cl)c1 (stereo unspecified)
Activity [1]: 19.8% | LD50 at 168 h [2]: ~2000 mg/kg | MIC50 (Candida albicans [3]): 0.5 µg/mL (≈ 0.784 µM) | MIC80 (Candida albicans [3]): 4 µg/mL (≈ 6.27 µM) | Activity [4]: 12.2% | MIC (Candida albicans [5]): 8 µg/mL (≈ 12.5 µM) | Activity [6]: Non-Toxic | Activity [7]: 61.3% | Activity [8]: Non-Toxic | MIC50 (Candida albicans [9]): 0.5 µg/mL (≈ 0.784 µM) | MIC80 (Candida albicans [9]): 4 µg/mL (≈ 6.27 µM) | IC50 [10]: 32.5 µM | MIC50 (Candida albicans [11]): 0.5 µg/mL (≈ 0.784 µM) | MIC80 (Candida albicans [11]): 4 µg/mL (≈ 6.27 µM) | Activity [12]: Non-Toxic | MIC (Candida albicans [13]): 2 µg/mL (≈ 3.13 µM)
